Experimental data reported in paper PMC9732821, “Neurotrophic Activity and Its Modulation by Zinc Ion of a Dimeric Peptide Mimicking the Brain-Derived Neurotrophic Factor N-Terminal Region” (ACS Chemical Neuroscience, 2022).

Tested on: human TrkB
Test: TrkB phosphorylation, immunoprecipitation and western blot in SH-SY5Y cells transfected with hTrkB-EGFP
Format: cell-based
Conditions: 10 μM peptide, 10 min stimulation, normalized to ctrl; four replicas (peptides); one-way ANOVA with Bonferroni
Text: The possibility of mimicking the function of the full-length BDNF protein by using a linear peptide fragment encompassing the first 12 amino acids of the mature NT N-terminal was already postulated.[31] Here, we named this sequence as m-bdnf (Figure 1A) and performed a systematic comparison between the performance of the full-length human BDNF produced recombinantly in Escherichia coli([32]) and (i) m-bdnf, (ii) a dimeric peptide displaying two copies of the m-bdnf sequence covalently bound by a disulfide bridge (d-bdnf), and (iii) a monomeric peptide displaying the scrambled sequence of m-bdnf (s-bdnf). We first investigated the ability of these peptides to activate the TrkB receptor. To this purpose, we expressed a recombinant GFP fusion of human TrkB (Figure 1A) in SH-SY5Y cells. Then, cells were stimulated with BDNF or the related peptides. […] Then, the same cell-based assays for ERK phosphorylation were used to better elucidate the agonist properties of d-bdnf (Figure 1D). […] Specifically, an EC50 concentration of BDNF (1 nM) or of d-bdnf (10 μM) was used in combination with the increasing concentration of d-bdnf and BDNF, respectively, and the increase of ERK phosphorylation was assessed. […] Of note, we also performed a non-permeabilizing immunofluorescence analysis to quantify the membrane-bound BDNF in differentiated SH-SY5Y cells in the absence or presence of BDNF and d-bdnf (Figure S1C,D). […] The same increment was not observed upon treatment with the d-bdnf peptide, while instead we measured a slight (∼18%) decrease of the signal possibly due to the ability of the peptide to displace endogenous BDNF at the tested dose (10 μM). […]
Figure 1 Activation of the TrkB receptor by BDNF and its mimetic peptide ligands. […] (C) Scatter dot plot of ERK (left) and AKT (right) phosphorylation levels detected in differentiated SH-SY5Y cells, after stimulation with the same treatments as in (B). […] (G) Bar graph of mean ± SD ‘B-1’ values retrieved from N&B analysis for all the different conditions measured. […]

Substance | TrkB phosphorylation (p-Tyr/TrkB band density)
HSDPARRGELSV-NH2 [m-bdnf, linear peptide fragment encompassing the first 12 amino acids of the mature NT N-terminal] | only d-bdnf was able to promote a significant TrkB phosphorylation
HSDPARRGELSVC-C-VSLEGRRAPDSH (disulfide) [d-bdnf] | significant TrkB phosphorylation (p < 0.05)
SRAGPHLRDVSE-NH2 [s-bdnf] | only d-bdnf was able to promote a significant TrkB phosphorylation
